Patent publication US12252492B2, “Substituted fused pyrrolo-diazepinones and uses thereof” (Northwestern University, priority 2018, dated 2025)

What was measured:
Assay type in all cases: cell-based, human
SK-MEL-2 = assay: NCI60 one-dose screen, SK-MEL-2; details: SK-MEL-2 (Melanoma); NCI 60 one-dose, 10^-5 M
Method: (§1) Anti-cancer activity screening of all compounds was performed by the NCI Developmental Therapeutics Program (DTP) through their NCI60 screening initiative. Assay details can be found at the website dtp.cancer.gov/discovery_development/nci-60/methodology.htm. Information from this website is reproduced here for convenience.
(§2) As of early 2007 all compounds submitted to the NCI 60 Cell screen are tested initially at a single high dose (10^-5 M) in the full NCI 60 cell panel. Only compounds which satisfy pre-determined threshold inhibition criteria in a minimum number of cell lines will progress to the full 5-dose assay. The threshold inhibition criteria for progression to the 5-dose screen was selected to efficiently capture compounds with anti-proliferative activity based on careful analysis of historical DTP screening data. The threshold criteria may be updated as additional data becomes available.
(§3) The One-dose data will be reported as a mean graph of the percent growth of treated cells and will be similar in appearance to mean graphs from the 5-dose assay. […]
(§4) Following drug addition, the plates are incubated for an additional 48 h at 37° C., 5% CO2, 95% air, and 100% relative humidity. […] Bound stain is subsequently solubilized with 10 mM trizma base, and the absorbance is read on an automated plate reader at a wavelength of 515 nm. […]

ACHN = assay: NCI60 one-dose screen, ACHN; details: ACHN (Renal Cancer); NCI 60 one-dose, 10^-5 M
Method: as §1, §2, §3, §4

LOX IMVI = assay: NCI60 one-dose screen, LOX IMVI; details: LOX IMVI (Melanoma); NCI 60 one-dose, 10^-5 M
Method: as §1, §2, §3, §4

DU-145 = assay: NCI60 one-dose screen, DU-145; details: DU-145 (Prostate Cancer); NCI 60 one-dose, 10^-5 M
Method: as §1, §2, §3, §4

NCI/ADR-RES = assay: NCI60 one-dose screen, NCI/ADR-RES; details: NCI/ADR-RES (Ovarian Cancer); NCI 60 one-dose, 10^-5 M
Method: as §1, §2, §3, §4

NCI-H226 = assay: NCI60 one-dose screen, NCI-H226; details: NCI-H226 (Non-Small Cell Lung Cancer); NCI 60 one-dose, 10^-5 M
Method: as §1, §2, §3, §4

OVCAR-4 = assay: NCI60 one-dose screen, OVCAR-4; details: OVCAR-4 (Ovarian Cancer); NCI 60 one-dose, 10^-5 M
Method: as §1, §2, §3, §4

SF-295 = assay: NCI60 one-dose screen, SF-295; details: SF-295 (CNS Cancer); NCI 60 one-dose, 10^-5 M
Method: as §1, §2, §3, §4

RPMI-8226 = assay: NCI60 one-dose screen, RPMI-8226; details: RPMI-8226 (Leukemia); NCI 60 one-dose, 10^-5 M
Method: as §1, §2, §3, §4

HL-60(TB) = assay: NCI60 one-dose screen, HL-60(TB); details: HL-60(TB) (Leukemia); NCI 60 one-dose, 10^-5 M
Method: as §1, §2, §3, §4

NCI-H322M = assay: NCI60 one-dose screen, NCI-H322M; details: NCI-H322M (Non-Small Cell Lung Cancer); NCI 60 one-dose, 10^-5 M
Method: as §1, §2, §3, §4

CAKI-1 = assay: NCI60 one-dose screen, CAKI-1; details: CAKI-1 (Renal Cancer); NCI 60 one-dose, 10^-5 M
Method: as §1, §2, §3, §4

K-562 = assay: NCI60 one-dose screen, K-562; details: K-562 (Leukemia); NCI 60 one-dose, 10^-5 M
Method: as §1, §2, §3, §4

HCT-116 = assay: NCI60 one-dose screen, HCT-116; details: HCT-116 (Colon Cancer); NCI 60 one-dose, 10^-5 M
Method: as §1, §2, §3, §4

RXF 393 = assay: NCI60 one-dose screen, RXF 393; details: RXF 393 (Renal Cancer); NCI 60 one-dose, 10^-5 M
Method: as §1, §2, §3, §4

U251 = assay: NCI60 one-dose screen, U251; details: U251 (CNS Cancer); NCI 60 one-dose, 10^-5 M
Method: as §1, §2, §3, §4

SR = assay: NCI60 one-dose screen, SR; details: SR (Leukemia); NCI 60 one-dose, 10^-5 M
Method: as §1, §2, §3, §4

PC-3 = assay: NCI60 one-dose screen, PC-3; details: PC-3 (Prostate Cancer); NCI 60 one-dose, 10^-5 M
Method: as §1, §2, §3, §4

SMILES | Growth Percent (SK-MEL-2) [%] | Growth Percent (ACHN) [%] | Growth Percent (LOX IMVI) [%] | Growth Percent (DU-145) [%] | Growth Percent (NCI/ADR-RES) [%] | Growth Percent (NCI-H226) [%] | Growth Percent (OVCAR-4) [%] | Growth Percent (SF-295) [%] | Growth Percent (RPMI-8226) [%] | Growth Percent (HL-60(TB)) [%] | Growth Percent (NCI-H322M) [%] | Growth Percent (CAKI-1) [%] | Growth Percent (K-562) [%] | Growth Percent (HCT-116) [%] | Growth Percent (RXF 393) [%] | Growth Percent (U251) [%] | Growth Percent (SR) [%] | Growth Percent (PC-3) [%]
CC(=O)N1c2ccccc2NC2=C(C(=O)N(Cc3ccccc3)C2(C)C)C1c1ccco1 (stereo not drawn) [NUCC-608455] | 16.91 | 33.51 | 25.57 | 7.82 | 82.92 | 65.66 | 48.83 | −0.75 | 23.43 | 9.63 | 44.61 | 42.97 | 12.60 | 7.52 | −11.72 | 24.64 | 23.29 | 29.67
CC(=O)N1c2ccccc2NC2=C(C(=O)N(C)C2(C)C)C1c1ccccc1 (stereo not drawn) [NUCC-60872] | 8.92 | 95.96 | 37.52 | 78.98 | 101.74 | 91.06 | 55.16 | 45.97 | 12.61 | 7.50 | 73.36 | 71.91 | 16.57 | 24.91 | 27.79 | 18.07 | 16.70 | 36.41
